Laboratory results reported in patent US20040137052A1, “Acid-containing preparations” (priority 2001, published 2004).

What was measured:
[1] = Solubility of compound A in Britton-Robinson buffer at each pH; assay type: physicochemical; settings: 20° C., 30 minutes
Experimental: Regarding a compound A, the solubility was measured by measuring the solubility in the Britton-Robinson buffer at 20° C. at each pH of pHs 1, 3, 5, 7, 9, 11 and 13. The compound A was added to a solution at each pH, the mixture was vigorously stirred for 30 seconds every 5 minutes, and an amount of a physiologically active substance dissolved at a time point of 30 minutes was measured (according to a method of confirming the solubility described in Japanese Pharmacopoeia, general rules).

Row | SMILES | melting point | solubility on an acidic side or an alkaline side ([1]; acidic or alkaline pH) | solubility at neutral pH ([1]; neutral pH)
1 | CC(C)(C(=O)O)c1cn2nc(NCCCN3CCC(OC(c4ccccc4)c4ccccc4)CC3)ccc2n1 [Reference Example 4, 2-[6-[3-[4-(diphenylmethoxy)piperidino]propylamino]imidazo[1,2-b]pyridazin-2-yl]-2-methylpropionic acid] | 205 to 206 °C |  | 
2 | CC(C)(C(=O)O)c1cn2nc(NCCCN3CCC(OC(c4ccccc4)c4ccccc4)CC3)ccc2n1.O.O [compound A, 2-[6-[3-[4-(diphenylmethoxy)piperidino]propylamino]imidazo[1,2-b]pyridazin-2-yl]-2-methylpropionic acid dihydrate] |  | enhanced solubility | hardly dissolved
3 | CCOC(=O)CNC(=O)c1cn2nc(NCCCN3CCC(OC(c4ccccc4)c4ccccc4)CC3)ccc2n1 (hydrate or solvate) [Reference Example 7, N-[6-[3-[4-(diphenylmethoxy)piperidino]propylamino]imidazo[1,2-b]pyridazine-2-carbonyl]glycine ethyl ester] | 172 to 174 °C |  | 
4 | CC(C)(C(=O)O)c1cn2nc(NCCCN3CCC(OC(c4ccccc4)c4ccccc4)CC3)ccc2n1.O.O (hydrate or solvate) [compound A, 2-[6-[3-[4-(diphenylmethoxy)piperidino]propylamino]imidazo[1,2-b]pyridazin-2-yl]-2-methylpropionic acid dihydrate] | 203 to 205 °C |  | 
